Experiment: Henry solubility constant Hcp at 298.15 K (mol/(m3 Pa))
Settings: reference: Wright et al. (1992)

Going from `BrC(Br)Br` [tribromomethane] to `BrCBr` [dibromomethane], the “Henry solubility constant Hcp” value falls from 0.024 to 0.011.

Going from `ClC=CCCl` [1,3-dichloropropene] to `ClCCl` [dichloromethane], the “Henry solubility constant Hcp” value falls from 0.0064 to 0.0039.

Compared with `ClCC(Cl)(Cl)Cl` [1,1,1,2-tetrachloroethane], `ClC(Cl)(Cl)Cl` [tetrachloromethane] is lower in “Henry solubility constant Hcp” value: 0.004 for the first, 0.00029 for the second.

Going from `ClCC(Cl)Cl` [1,1,2-trichloroethane] to `CC(Cl)CCl` (stereo unspecified) [1,2-dichloropropane], the “Henry solubility constant Hcp” value falls from 0.011 to 0.0036.

Going from `ClC(Cl)C(Cl)Cl` [1,1,2,2-tetrachloroethane] to `CC(Cl)(Cl)Cl` [1,1,1-trichloroethane], the “Henry solubility constant Hcp” value falls from 0.022 to 0.0006.

For `ClC=C(Cl)Cl` [trichloroethene], the “Henry solubility constant Hcp” value was 0.0011.

Reference: Sander's compilation of Henry's law constants (doi:10.1021/es00033a018)
